Data from PubChem BioAssay AID330 (DTP/NCI, 2004).
Values joined by “and” are separate entries in the source; they are usually repeats but may differ in a detail not shown here. Equal entries are not always repeated. Inconclusive results and toxic doses are left out. How the source made its calls: active means survival T/C of 150% or more; inactive means T/C below 125% in these data.

Tested on: P388 leukemia ip, CD2F1 mice, survival T/C
Assay: NCI In Vivo Anticancer Drug Screen. Data for tumor model P388 Leukemia (intraperitoneal) in CD2F1 (CDF1) mice
Conditions: endpoint: median survival time, higher = longer survival
How it was run: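 Mice carrying the transplanted tumor received test compound or vehicle. Survival was recorded in each group, and the value is the treated-group measurement divided by that of the vehicle-treated control group.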

[1] = dose: 100.0 mg/kg/injection, schedule: Q04DX003 (ip), vehicle: saline with Tween-80
[2] = dose: 200.0 mg/kg/injection, schedule: Q04DX003 (ip), vehicle: saline with Tween-80
[3] = dose: 400.0 mg/kg/injection, schedule: Q04DX003 (ip), vehicle: saline with Tween-80
[4] = dose: 60.0 mg/kg/injection, schedule: Q01DX005 (ip), vehicle: saline with Tween-80
[5] = dose: 120.0 mg/kg/injection, schedule: Q01DX005 (ip), vehicle: saline with Tween-80
[6] = dose: 240.0 mg/kg/injection, schedule: Q01DX005 (ip), vehicle: saline with Tween-80
[7] = dose: 50.0 mg/kg/injection, schedule: Q01DX009 (ip), vehicle: saline
[8] = dose: 100.0 mg/kg/injection, schedule: Q01DX009 (ip), vehicle: saline
[9] = dose: 200.0 mg/kg/injection, schedule: Q01DX009 (ip), vehicle: saline
[10] = dose: 25.0 mg/kg/injection, schedule: Q01DX009 (ip), vehicle: saline with Tween-80
[11] = dose: 50.0 mg/kg/injection, schedule: Q01DX009 (ip), vehicle: saline with Tween-80
[12] = dose: 100.0 mg/kg/injection, schedule: Q01DX009 (ip), vehicle: saline with Tween-80
[13] = dose: 12.5 mg/kg/injection, schedule: Q01DX009 (ip), vehicle: Klucel (hydroxypropylcellulose) (HPC)
[14] = dose: 25.0 mg/kg/injection, schedule: Q01DX009 (ip), vehicle: Klucel (hydroxypropylcellulose) (HPC)
[15] = dose: 50.0 mg/kg/injection, schedule: Q01DX009 (ip), vehicle: Klucel (hydroxypropylcellulose) (HPC)
[16] = dose: 200.0 mg/kg/injection, schedule: Q01DX009 (ip), vehicle: Klucel (hydroxypropylcellulose) (HPC)
[17] = dose: 50.0 mg/kg/injection, schedule: Q01DX005 (ip), vehicle: saline
[18] = dose: 100.0 mg/kg/injection, schedule: Q01DX005 (ip), vehicle: saline
[19] = dose: 60.0 mg/kg/injection, schedule: Q01DX005 (ip), vehicle: Klucel (hydroxypropylcellulose) (HPC)
[20] = dose: 120.0 mg/kg/injection, schedule: Q01DX005 (ip), vehicle: Klucel (hydroxypropylcellulose) (HPC)
[21] = dose: 240.0 mg/kg/injection, schedule: Q01DX005 (ip), vehicle: Klucel (hydroxypropylcellulose) (HPC)
[22] = dose: 100.0 mg/kg/injection, schedule: Q01DX009 (ip), vehicle: Klucel (hydroxypropylcellulose) (HPC)

Measured: T/C

C1CSC(SCCCSC2SCCCS2)SC1
inactive: [1] 99 % of control | [2] 104 % of control | [3] 94 % of control

CC1=NS(C)(=O)=c2ccccc2=N1 (stereo unspecified)
inactive: [1] 105 % of control | [2] 105 % of control | [3] 106 % of control

COC(=O)c1c([As](C)C)n[n]([Sn]([CH3])([CH3])[CH3])c1C(=O)OC
inactive: dose: 6.25 mg/kg/injection, schedule: Q04DX003 (ip), vehicle: saline 88 % of control | dose: 12.5 mg/kg/injection, schedule: Q04DX003 (ip), vehicle: saline 99 % of control

CN(C)C1C(=O)C(C(=O)NCN2CCCC2)=C(O)C2(O)C(=O)C3=C(O)c4c(O)cccc4C(C)(O)C3CC12 (stereo unspecified)
inactive: dose: 50.0 mg/kg/injection, schedule: Q01DX005 (ip), vehicle: saline with Tween-80 96 % of control | dose: 100.0 mg/kg/injection, schedule: Q01DX005 (ip), vehicle: saline with Tween-80 95 % of control | dose: 200.0 mg/kg/injection, schedule: Q01DX005 (ip), vehicle: saline with Tween-80 97 % of control

Clc1ccc(C2=NON(c3ncccn3)C3N=CC=CN23)cc1 (stereo unspecified)
inactive: [4] 87 % of control | [5] 91 % of control | [6] 99 % of control

O=S1(=O)CCN(Cc2ccccn2)CC1
inactive: [7] 94 % of control | [8] 94 % of control | [9] 91 % of control

Cc1ccc(C(=O)CC[N+](C)(C)C)cc1
inactive: dose: 3.13 mg/kg/injection, schedule: Q01DX009 (ip), vehicle: saline 109 % of control | dose: 6.25 mg/kg/injection, schedule: Q01DX009 (ip), vehicle: saline 113 % of control | dose: 12.5 mg/kg/injection, schedule: Q01DX009 (ip), vehicle: saline 109 % of control

[O-]c1n[n+](Cc2ccc(Br)cc2)no1
inactive: dose: 50.0 mg/kg/injection, schedule: Q04DX003 (ip), vehicle: Klucel (hydroxypropylcellulose) (HPC) 96 % of control | dose: 100.0 mg/kg/injection, schedule: Q04DX003 (ip), vehicle: Klucel (hydroxypropylcellulose) (HPC) 100 % of control | dose: 200.0 mg/kg/injection, schedule: Q04DX003 (ip), vehicle: Klucel (hydroxypropylcellulose) (HPC) 110 % of control

O=C1SC(c2ccccc2)(c2ccccc2)c2cscc21
inactive: [10] 92 % of control | [11] 94 % of control | [12] 99 % of control | dose: 200.0 mg/kg/injection, schedule: Q01DX009 (ip), vehicle: saline with Tween-80 90 % of control

N#CC1CCCCCc2c1[nH]c1ccccc21 (stereo unspecified)
inactive: [10] 97 % of control | [11] 103 % of control | [12] 103 % of control

CSC(=S)n1nc(-c2cccs2)c(N=Nc2ccc([N+](=O)[O-])cc2)c1C(F)(F)F
inactive: [4] 94 % of control | [5] 88 % of control | [6] 97 % of control

Cc1ccc([Se](=C(C(=O)c2ccccc2)C(=O)c2ccccc2)c2ccc(C)cc2)cc1
inactive: [7] 104 % of control | [8] 100 % of control | [9] 104 % of control

CCCCCCCCCSc1nc2ccc(N=Cc3ccccc3O)cc2s1
inactive: [13] 100 % of control | [14] 100 % of control | [15] 91 % of control and 92 % of control | [16] 90 % of control

O=[N+]([O-])c1ccc(-c2c[s+]cs2)cc1
inactive: dose: 6.25 mg/kg/injection, schedule: Q01DX009 (ip), vehicle: distilled water + Tween-80 101 % of control | dose: 12.5 mg/kg/injection, schedule: Q01DX009 (ip), vehicle: distilled water + Tween-80 101 % of control | dose: 25.0 mg/kg/injection, schedule: Q01DX009 (ip), vehicle: distilled water + Tween-80 108 % of control | dose: 50.0 mg/kg/injection, schedule: Q01DX009 (ip), vehicle: distilled water + Tween-80 95 % of control | dose: 100.0 mg/kg/injection, schedule: Q01DX009 (ip), vehicle: distilled water + Tween-80 104 % of control

Cn1ncc2c(N(CCO)CCO)ncnc21
inactive: [17] 100 % of control | [18] 100 % of control | dose: 200.0 mg/kg/injection, schedule: Q01DX005 (ip), vehicle: saline 95 % of control

CCCCOCN1C(=O)NC(c2ccccc2)(c2ccccc2)C1=O
inactive: [19] 94 % of control | [20] 94 % of control | [21] 94 % of control

C1CCC2OCN3CCCCC3CC2C1 (stereo unspecified)
inactive: dose: 12.5 mg/kg/injection, schedule: Q01DX005 (ip), vehicle: saline 107 % of control and 98 % of control | dose: 25.0 mg/kg/injection, schedule: Q01DX005 (ip), vehicle: saline 99 % of control and 98 % of control | [17] 100 % of control and 111 % of control and 113 % of control | [18] 114 % of control and 118 % of control and 121 % of control

CCCCCCCCN1CCS(=O)(=O)CC1
inactive: [15] 89 % of control | [22] 94 % of control | [16] 93 % of control

O=[N+]([O-])c1cccc2c(Nc3ccc(S(=O)(=O)Nc4nccs4)cc3)c3ccccc3nc12
inactive: dose: 15.0 mg/kg/injection, schedule: Q01DX005 (ip), vehicle: saline with Tween-80 95 % of control | dose: 30.0 mg/kg/injection, schedule: Q01DX005 (ip), vehicle: saline with Tween-80 100 % of control | [4] 102 % of control and 97 % of control

CC(=O)ON1C(=O)C2C3C=CC(O3)C2C1=O (stereo unspecified)
inactive: dose: 3.13 mg/kg/injection, schedule: Q01DX009 (ip), vehicle: water 103 % of control | dose: 6.25 mg/kg/injection, schedule: Q01DX009 (ip), vehicle: water 112 % of control | dose: 12.5 mg/kg/injection, schedule: Q01DX009 (ip), vehicle: water 100 % of control | dose: 25.0 mg/kg/injection, schedule: Q01DX009 (ip), vehicle: water 102 % of control | dose: 50.0 mg/kg/injection, schedule: Q01DX009 (ip), vehicle: water 93 % of control

O=C1NC(c2cccc3c2OCO3)N=C2Oc3ccccc3C=C12 (stereo unspecified)
inactive: dose: 25.0 mg/kg/injection, schedule: Q01DX009 (ip), vehicle: saline 107 % of control and 87 % of control | [11] 118 % of control | [7] 100 % of control and 107 % of control | [12] 120 % of control | [8] 106 % of control and 117 % of control | [9] 106 % of control and 117 % of control

CC1(C)N2c3ccc(Cl)cc3C(c3ccccc3)N1c1ccc(Cl)cc1C2c1ccccc1 (stereo unspecified)
inactive: [15] 98 % of control | [22] 95 % of control | [16] 95 % of control

Nc1nc(-c2ccccc2N=NN2CCCCC2)nc2ccccc12
inactive: [13] 111 % of control | [14] 102 % of control | [15] 104 % of control | [22] 110 % of control and 113 % of control

COc1c2c(cc3c1C(C1OC(=O)c4c1c([N+](=O)[O-])c(OC)c(OC)c4[N+](=O)[O-])N(C)CC3)OCO2 (stereo unspecified)
inactive: dose: 25.0 mg/kg/injection, schedule: Q01DX005 (ip), vehicle: Klucel (hydroxypropylcellulose) (HPC) 101 % of control | dose: 50.0 mg/kg/injection, schedule: Q01DX005 (ip), vehicle: Klucel (hydroxypropylcellulose) (HPC) 92 % of control | dose: 100.0 mg/kg/injection, schedule: Q01DX005 (ip), vehicle: Klucel (hydroxypropylcellulose) (HPC) 93 % of control | dose: 200.0 mg/kg/injection, schedule: Q01DX005 (ip), vehicle: Klucel (hydroxypropylcellulose) (HPC) 91 % of control

CCOC(=O)C1=C(C(=O)c2cccc3ccccc23)C(c2ccc([N+](=O)[O-])cc2)C(C(=O)c2cccc3ccccc23)=C(C(=O)OCC)N1
inactive: [19] 87 % of control and 88 % of control | [20] 87 % of control | [21] 86 % of control and 95 % of control
